These compounds were tested against T1, human active recombinant p38 (p38α) (Homo sapiens, UniProt Q16539) (assay: p38 Alpha Enzyme Assay (AlphaScreen, biotinylated-ATF2 substrate)). Settings: means of replicate determinations; pre-incubated for 4 hours at 37° C.; SD of assay between 0.2 and 0.3 log units.
T1 construct: 6His
Type: biochemical
Method: The ability of the compounds of formula (I) to inhibit p38 kinase may be determined using the following biological assay:
Enzyme assays were performed in polypropylene 96 well plates. The following solutions were added to each well; 10 μL of compound dilutions in assay buffer (20 mM HEPES pH 7.4, containing 20 mM magnesium acetate, 0.005% (w/v) Tween-20, 10 mM DTT) containing 1% (v/v) DMSO or assay buffer containing 1% (v/v) DMSO alone, 70 μL of assay buffer containing 36 nM substrate (biotinylated-ATF2) and 10 μL of an appropriate dilution of human active recombinant p38-6H is tagged. Depending on batch of p38, an appropriate dilution was typically a 5 nM solution to give a final enzyme concentration of 0.5 nM. At this stage, background control wells also received 50 μL of AlphaScreen quench buffer (10 mM HEPES pH 7.4 containing 100 mM EDTA, 0.2% (w/v) bovine serum albumin). The plate was covered, pre-incubated for 4 hours at 37° C. and the enzyme reaction initiated by addition of 10 μL 1 mM ATP. After incubation for a further 45 minutes at 37° C., the reaction was stopped by addition of 50 μL quench reagent and 50 μL of the quenched reaction mixture transferred to an opaque, white 96-well plate. Detection reagent, 25 μL of 10 mM HEPES pH 7.4 containing 100 mM EDTA, 0.2% (w/v) bovine serum albumin, 0.3 nM anti phosphoATF2 antibody and 25 μg/mL of AlphaScreen protein A acceptor and donor beads' (PerkinElmer Inc.), was added to all wells in a darkened room, the plate sealed and left in the dark for at least 5 hours before AlphaScreen readings were taken using a Perkin Elmer EnVision reader. Total, uninhibited activity was determined from assays performed in each assay plate. The mean control in the absence of p38 activity was subtracted from each well. Data were expressed as percent inhibition of total activity using equation 1. Percent Inhibition=100*(1−Test/Control) Eq.1 Where . . . Test=p38 kinase activity in the presence of compound Control=p38 kinase activity in the absence of compound.
pIC50 is defined as the logarithm of the reciprocal of the concentration of compound required for 50% reduction in total p38 kinase activity.
The standard deviation of the p38 enzyme inhibition assay is between 0.2 and 0.3 log units.

T1 sequence (Q16539 whole entry): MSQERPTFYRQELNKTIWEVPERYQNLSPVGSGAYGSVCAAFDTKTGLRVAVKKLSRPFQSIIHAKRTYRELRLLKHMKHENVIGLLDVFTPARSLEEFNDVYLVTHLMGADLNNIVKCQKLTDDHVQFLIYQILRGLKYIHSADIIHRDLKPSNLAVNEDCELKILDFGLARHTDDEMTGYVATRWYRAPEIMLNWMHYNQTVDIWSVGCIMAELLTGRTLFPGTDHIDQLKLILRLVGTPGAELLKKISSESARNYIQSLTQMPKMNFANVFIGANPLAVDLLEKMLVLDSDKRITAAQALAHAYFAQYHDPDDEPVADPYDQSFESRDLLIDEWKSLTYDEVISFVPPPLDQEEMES

| p38α inhibition Mean pIC50 | Structure (SMILES) |
| --- | --- |
| 9.6 | Cc1c(F)cc(C(=O)NC2CC2)cc1-c1ccc2c(=O)n(CC(C)(C)CO)cc(CN3CCN[C@H](CO)C3)c2c1 [Example 17, N-Cyclopropyl-3-fluoro-5-(2-(3-hydroxy-2,2-dimethylpropyl)-4-(((3S)-3-(hydroxymethyl)piperazin-1-yl)methyl)-1-oxo-1,2-dihydroisoquinolin-6-yl)-4-methylbenzamide] |

Same assay, conditions: means of replicate determinations; pre-incubated for 4 hours at 37° C.; SD of assay between 0.2 and 0.3 log units; read-out: p38α inhibition Mean pIC50 (converted)

| Structure (SMILES) | IC50 [pM] |
| --- | --- |
| Cc1c(F)cc(C(=O)NC2CC2)cc1-c1ccc2c(=O)n(CC(C)(C)CO)cc(CN3CCNCC3)c2c1 [Example 1, N-Cyclopropyl-3-fluoro-5-[2-(3-hydroxy-2,2-dimethylpropyl)-1-oxo-4-(piperazin-1-ylmethyl)-1,2-dihydroisoquinolin-6-yl]-4-methylbenzamide] | 126 |
| Cc1c(F)cc(C(=O)NC2CC2)cc1-c1ccc2c(=O)n(CC(C)(C)CO)cc(CN3CCCN(C)CC3)c2c1 [Example 2, N-Cyclopropyl-3-fluoro-5-{2-(3-hydroxy-2,2-dimethylpropyl)-4-[(4-methyl-1,4-diazepan-1-yl)methyl]-1-oxo-1,2-dihydroisoquinolin-6-yl}-4-methylbenzamide] | 251 |
| Cc1c(F)cc(C(=O)NC2CC2)cc1-c1ccc2c(=O)n(CCCO)cc(CN3CCN[C@H](CO)C3)c2c1 [Example 3, N-Cyclopropyl-3-fluoro-5-(4-(((3S)-3-(hydroxymethyl)piperazin-1-yl)methyl)-2-(3-hydroxypropyl)-1-oxo-1,2-dihydroisoquinolin-6-yl)-4-methylbenzamide] | 158 |
| Cc1c(F)cc(C(=O)NC2CC2)cc1-c1ccc2c(=O)n(CCCO)cc(CN3CCN[C@@H](C)C3)c2c1 [Example 4, N-Cyclopropyl-3-fluoro-5-(2-(3-hydroxypropyl)-4-(((3S)-3-methylpiperazin-1-yl)methyl)-1-oxo-1,2-dihydroisoquinolin-6-yl)-4-methylbenzamide] | 501 |
| Cc1c(F)cc(C(=O)NC2CC2)cc1-c1ccc2c(=O)n(CCO)cc(CN3CCNCC3)c2c1 [Example 5, N-Cyclopropyl-3-fluoro-5-(2-(2-hydroxyethyl)-1-oxo-4-(piperazin-1-ylmethyl)-1,2-dihydroisoquinolin-6-yl)-4-methylbenzamide] | 200 |
| Cc1c(F)cc(C(=O)NC2CC2)cc1-c1ccc2c(=O)n(CCO)cc(CN3CCN[C@@H](C)C3)c2c1 [Example 6] | 1000 |
| Cc1c(F)cc(C(=O)NC2CC2)cc1-c1ccc2c(=O)n(CCO)cc(CN3CCCN(C)CC3)c2c1 [Example 7, N-Cyclopropyl-3-fluoro-5-(2-(2-hydroxyethyl)-4-((4-methyl-1,4-diazepan-1-yl)methyl)-1-oxo-1,2-dihydroisoquinolin-6-yl)-4-methylbenzamide] | 501 |
| Cc1c(F)cc(C(=O)NC2CC2)cc1-c1ccc2c(=O)n(CCCCO)cc(CN3CCCN(C)CC3)c2c1 [Example 8, N-Cyclopropyl-3-fluoro-5-{2-(4-hydroxybutyl)-4-[(4-methyl-1,4-diazepan-1-yl)methyl]-1-oxo-1,2-dihydroisoquinolin-6-yl}-4-methylbenzamide] | 251 |
| Cc1c(F)cc(C(=O)NC2CC2)cc1-c1ccc2c(=O)n(CC[C@H](C)O)cc(CN3CCNCC3)c2c1 [Example 9, N-Cyclopropyl-3-fluoro-5-{2-[(3S)-3-hydroxybutyl]-1-oxo-4-(piperazin-1-ylmethyl)-1,2-dihydroisoquinolin-6-yl}-4-methylbenzamide] | 1580 |
| Cc1c(F)cc(C(=O)NC2CC2)cc1-c1ccc2c(=O)n(CCCO)cc(CN3CCNCC3)c2c1 [Example 10, N-Cyclopropyl-3-fluoro-5-[2-(3-hydroxypropyl)-1-oxo-4-(piperazin-1-ylmethyl)-1,2-dihydroisoquinolin-6-yl]-4-methylbenzamide] | 79.4 |
| Cc1c(F)cc(C(=O)NC2CC2)cc1-c1ccc2c(=O)n(CC(C)(C)CO)cc(CN3CCN[C@@H](CO)C3)c2c1 [Example 11, N-Cyclopropyl-3-fluoro-5-(2-(3-hydroxy-2,2-dimethylpropyl)-4-(((3R)-3-(hydroxymethyl)piperazin-1-yl)methyl)-1-oxo-1,2-dihydroisoquinolin-6-yl)-4-methylbenzamide] | 158 |
| Cc1c(F)cc(C(=O)NC2CC2)cc1-c1ccc2c(=O)n(CC3(CO)CC3)cc(CN3CCN[C@@H](CO)C3)c2c1 [Example 12, N-Cyclopropyl-3-fluoro-5-(2-((1-(hydroxymethyl)cyclopropyl)methyl)-4-(((3R)-3-(hydroxymethyl)piperazin-1-yl)methyl)-1-oxo-1,2-dihydroisoquinolin-6-yl)-4-methylbenzamide] | 398 |
| COCCCn1cc(CN2CCN[C@@H](CO)C2)c2cc(-c3cc(C(=O)NC4CC4)cc(F)c3C)ccc2c1=O [Example 13] | 501 |
| Cc1c(F)cc(C(=O)NC2CC2)cc1-c1ccc2c(=O)n(CCC(C)(C)O)cc(CN3CCN[C@@H](CO)C3)c2c1 [Example 14, N-Cyclopropyl-3-fluoro-5-(2-(3-hydroxy-3-methylbutyl)-4-(((3R)-3-(hydroxymethyl)piperazin-1-yl)methyl)-1-oxo-1,2-dihydroisoquinolin-6-yl)-4-methylbenzamide] | 501 |

Second part, the compound after the results:

| IC50 [pM] | Structure (SMILES) |
| --- | --- |
| 200 | Cc1c(F)cc(C(=O)NC2CC2)cc1-c1ccc2c(=O)n(CC(C)(C)CO)cc(C(C)N3CCNCC3)c2c1 (racemic) [Example 38, N-Cyclopropyl-3-fluoro-5-[2-(3-hydroxy-2,2-dimethylpropyl)-1-oxo-4-(1-piperazin-1-ylethyl)-1,2-dihydroisoquinolin-6-yl]-4-methylbenzamide racemate] |
| 631 | Cc1c(F)cc(C(=O)NC2CC2)cc1-c1ccc2c(=O)n(CC(C)(C)CO)cc(C(C)N3CCNCC3)c2c1 (single isomer, unassigned) [Example 39, N-Cyclopropyl-3-fluoro-5-[2-(3-hydroxy-2,2-dimethylpropyl)-1-oxo-4-(1-piperazin-1-ylethyl)-1,2-dihydroisoquinolin-6-yl]-4-methylbenzamide] |
| 79.4 | Cc1c(F)cc(C(=O)NC2CC2)cc1-c1ccc2c(=O)n(CC(C)(C)CO)cc(C(C)N3CCNCC3)c2c1 (single isomer, unassigned) [Example 40, N-Cyclopropyl-3-fluoro-5-[2-(3-hydroxy-2,2-dimethylpropyl)-1-oxo-4-(1-piperazin-1-ylethyl)-1,2-dihydroisoquinolin-6-yl]-4-methylbenzamide] |
| 501 | Cc1c(F)cc(C(=O)NC2CC2)cc1-c1ccc2c(=O)n(CC3(CO)CC3)cc(CN3CCN[C@H](CO)C3)c2c1 [Example 15, N-Cyclopropyl-3-fluoro-5-(2-((1-(hydroxymethyl)cyclopropyl)methyl)-4-(((3S)-3-(hydroxymethyl)piperazin-1-yl)methyl)-1-oxo-1,2-dihydroisoquinolin-6-yl)-4-methylbenzamide] |
| 251 | Cc1c(F)cc(C(=O)NC2CC2)cc1-c1ccc2c(=O)n(CC3(CO)CC3)cc(CN3CCNC[C@@H]3CO)c2c1 [Example 16, N-Cyclopropyl-3-fluoro-5-(2-((1-(hydroxymethyl)cyclopropyl)methyl)-4-(((2R)-2-(hydroxymethyl)piperazin-1-yl)methyl)-1-oxo-1,2-dihydroisoquinolin-6-yl)-4-methylbenzamide] |
| 794 | Cc1c(F)cc(C(=O)NC2CC2)cc1-c1ccc2c(=O)n(C[C@H](C)CO)cc(CN3CCNCC3)c2c1 [Example 18, N-Cyclopropyl-3-fluoro-5-{2-[(2S)-3-hydroxy-2-methylpropyl]-1-oxo-4-(piperazin-1-ylmethyl)-1,2-dihydroisoquinolin-6-yl}-4-methylbenzamide] |
| 398 | Cc1c(F)cc(C(=O)NC2CC2)cc1-c1ccc2c(=O)n(CC3(CO)CC3)cc(CN3CCNCC3)c2c1 [Example 19, N-Cyclopropyl-3-fluoro-5-[2-{[1-(hydroxymethyl)cyclopropyl]methyl}-1-oxo-4-(piperazin-1-ylmethyl)-1,2-dihydroisoquinolin-6-yl]-4-methylbenzamide] |
| 794 | Cc1c(F)cc(C(=O)NC2CC2)cc1-c1ccc2c(=O)n(C[C@@H](C)CO)cc(CN3CCNCC3)c2c1 [Example 20, N-Cyclopropyl-3-fluoro-5-{2-[(2R)-3-hydroxy-2-methylpropyl]-1-oxo-4-(piperazin-1-ylmethyl)-1,2-dihydroisoquinolin-6-yl}-4-methylbenzamide] |
| 251 | Cc1c(F)cc(C(=O)NC2CC2)cc1-c1ccc2c(=O)n(CC(C)(C)CO)cc(CN3CCNC[C@H]3CO)c2c1 [Example 21, N-Cyclopropyl-3-fluoro-5-[2-(3-hydroxy-2,2-dimethylpropyl)-4-{[(2S)-2-(hydroxymethyl)piperazin-1-yl]methyl}-1-oxo-1,2-dihydroisoquinolin-6-yl]-4-methylbenzamide] |

Reference: patent US8012980B2, “Isoquinolinone derivatives” (AstraZeneca AB, priority 2008, dated 2011)
